Experiments:
mouse [1] = assay: Analgesia, writhing test, mouse s.c.; assay type: in vivo; details: for ED50: sc, mouse s.c.
Source text: (§1) The compounds of the present invention, that is, those embraced by formula I above and their non-toxic, pharmacologically acceptable acid addition salts, have useful pharmacodynamic properties. More particularly, they exert a therapeutically useful effect upon the central nervous system in warm-blooded animals, such as mice, especially analgesic and morphine-antagonistic activities, which were confirmed in the writhing test and the Haffner test. Pursuant to prevailing teachings, this agonistic/antagonistic activity spectrum points toward the absence of or a very low abuse potential.

mouse [2] = assay: Morphine-antagonism, mouse (Nalorphine = 1); assay type: in vivo; details: for Morphine-antagonism (Nalorphine = 1): mouse, relative potency
Source text: as §1

Toxicity, mouse, s.c. = assay type: in vivo; details: in vivo, sc; for LD50: mouse; for selectivity ratio: mouse s.c., LD50 / writhing ED50, read-out: Index LD50/ED50
[3] = test system: withdrawn morphine dependent monkeys; assay: Suppression of abstinence symptoms in withdrawn morphine dependent monkeys; assay type: in vivo, monkey
[4] = test system: withdrawn morphine dependent rats; assay: Suppression of abstinence symptoms in withdrawn morphine dependent rats; assay type: in vivo, rat
Source text: as §1

mouse [5] = assay: Toxicity, mouse, s.c.; assay type: in vivo

SMILES	ED50 (mouse [1])	antagonistic component (mouse [2]; morphine antagonism, in words)	Morphine-antagonism (Nalorphine = 1) (mouse [2])	LD50 (Toxicity, mouse, s.c.)	selectivity ratio (Toxicity, mouse, s.c.)	analgesic activity compared with 2-furfuryl-2'-hydroxy-5,9-α-dimethyl-6,7-benzomorphan (mouse [1]; vs. 2-furfuryl compound)	suppression of abstinence symptoms [3]	suppression of abstinence symptoms [4]	therapeutic index compared with 2-furfuryl-2'-hydroxy-5,9-α-dimethyl-6,7-benzomorphan (mouse [5]; vs. 2-furfuryl compound)	therapeutic index compared to pentazocine (mouse [5]; vs. pentazocine)
Cc1ccoc1CN1CC[C@@]2(C)c3cc(O)ccc3C[C@@H]1[C@@H]2C (relative stereo) [2-(3-methyl-furfuryl)-2'-hydroxy-5,9-α-dimethyl-6,7-benzomorphan]	0.6 mg/kg	does not have the desired antagonistic component	inactive	305 mg/kg	508					
C[C@H]1[C@H]2Cc3ccc(O)cc3[C@]1(C)CCN2Cc1ccno1 (relative stereo) [Example 1, 5,9-α-Dimethyl-2'-hydroxy-2-(5-isoxazolyl-methyl)-6,7-benzomorphan]	0.6 mg/kg		0.1	1080 mg/kg	1800	significantly superior	not capable of suppressing the abstinence symptoms	not capable of suppressing the abstinence symptoms	significantly superior	far superior
C[C@H]1[C@H]2Cc3ccc(O)cc3[C@]1(C)CCN2Cc1ccco1 (relative stereo) [2-furfuryl-2'-hydroxy-5,9-α-dimethyl-6,7-benzomorphan]	18 mg/kg		1	292 mg/kg	16					
CC(C)=CCN1CCC2(C)c3cc(O)ccc3CC1C2C (stereo not shown) [Pentazocine]	1.4 mg/kg		0.025	220 mg/kg	157					
